Results taken from the OligoGym collection.
HELM strings list units from the 5' end as sugar, base in round brackets, then linkage (d deoxyribose, r ribose, m 2'-O-methyl, p phosphodiester). Strings are as the collection lists them; they lack the last nucleoside at the 3' end of the tested compound. [moe] = 2'-O-(2-methoxyethyl) (MOE); [sp] = phosphorothioate linkage; [m5C] = 5-methylcytosine

Target: GFAP
Assay: mouse, dose not given
Settings: ASO

Row | Substance | 3 h FOB score [score 0-7]
1 | RNA1{[moe](A)[sp].[moe](T)p.[moe](T)p.[moe](T)p.[moe](G)[sp].d(T)[sp].d([m5C])[sp].d(T)[sp].d(T)[sp].d(T)[sp].d(A)[sp].d(T)[sp].d(T)[sp].[moe](T)p.[moe](T)p.[moe](T)[sp].[moe]([m5C])}$$$$ (last 3' nucleoside missing) | 0
2 | RNA1{[moe](G)[sp].[moe]([m5C])p.[moe]([m5C])p.[moe](A)p.[moe](T)[sp].d(T)[sp].d(T)[sp].d(A)[sp].d(T)[sp].d([m5C])[sp].d(T)[sp].d(G)[sp].d(T)[sp].[moe](G)p.[moe]([m5C])p.[moe](T)[sp].[moe](T)}$$$$ (last 3' nucleoside missing) | 1
3 | RNA1{[moe](G)[sp].[moe](G)p.[moe]([m5C])p.[moe](A)p.[moe]([m5C])p.[moe](A)p.d(G)[sp].d(T)[sp].d(T)[sp].d([m5C])[sp].d([m5C])[sp].d([m5C])[sp].d(A)[sp].d(G)[sp].d(A)[sp].d(T)[sp].[moe](A)p.[moe]([m5C])[sp].[moe](T)}$$$$ (last 3' nucleoside missing) | 1
4 | RNA1{[moe](A)[sp].[moe](G)p.[moe](G)p.[moe](G)p.[moe](T)[sp].d(G)[sp].d(G)[sp].d([m5C])[sp].d(T)[sp].d(T)[sp].d([m5C])[sp].d(A)[sp].d(T)[sp].d([m5C])[sp].d(T)[sp].[moe](G)p.[moe]([m5C])p.[moe](T)[sp].[moe](T)}$$$$ (last 3' nucleoside missing) | 2
5 | RNA1{[moe]([m5C])[sp].[moe](A)p.[moe](T)p.[moe](T)p.[moe](T)p.[moe](G)p.d(T)[sp].d([m5C])[sp].d(T)[sp].d(T)[sp].d(T)[sp].d(A)[sp].d(T)[sp].d(T)[sp].d(T)[sp].d(T)[sp].[moe](T)p.[moe]([m5C])[sp].[moe]([m5C])}$$$$ (last 3' nucleoside missing) | 0
6 | RNA1{[moe](T)[sp].[moe](T)p.[moe](G)p.[moe](A)p.[moe](G)p.d(A)[sp].d(T)[sp].d(A)[sp].d(T)[sp].d([m5C])[sp].d(T)[sp].d(T)[sp].d(G)[sp].d(T)[sp].d(G)[sp].[moe](A)p.[moe]([m5C])p.[moe]([m5C])[sp].[moe](T)}$$$$ (last 3' nucleoside missing) | 3
7 | RNA1{[moe](T)[sp].[moe]([m5C])p.[moe](T)p.[moe](G)p.[moe](T)[sp].d(G)[sp].d([m5C])[sp].d(T)[sp].d(T)[sp].d(T)[sp].d(A)[sp].d(G)[sp].d(T)[sp].d(G)[sp].d(A)[sp].[moe]([m5C])p.[moe]([m5C])p.[moe](T)[sp].[moe](G)}$$$$ (last 3' nucleoside missing) | 4
8 | RNA1{[moe]([m5C])[sp].[moe](A)p.[moe](G)p.[moe]([m5C])p.[moe](A)[sp].d(T)[sp].d(T)[sp].d(T)[sp].d(G)[sp].d(T)[sp].d([m5C])[sp].d(T)[sp].d(T)[sp].[moe](T)p.[moe](A)p.[moe](T)[sp].[moe](T)}$$$$ (last 3' nucleoside missing) | 3
9 | RNA1{[moe](G)[sp].[moe](G)p.[moe](T)p.[moe]([m5C])p.[moe]([m5C])[sp].d(T)[sp].d(A)[sp].d(A)[sp].d(A)[sp].d(T)[sp].d(A)[sp].d(T)[sp].d(T)[sp].d([m5C])[sp].d(T)[sp].[moe](A)p.[moe](G)p.[moe](T)[sp].[moe]([m5C])}$$$$ (last 3' nucleoside missing) | 1
10 | RNA1{[moe](A)[sp].[moe](G)p.[moe](T)p.[moe]([m5C])p.[moe](T)[sp].d([m5C])[sp].d(A)[sp].d(G)[sp].d(T)[sp].d(T)[sp].d(T)[sp].d(T)[sp].d([m5C])[sp].d([m5C])[sp].d(T)[sp].[moe]([m5C])p.[moe]([m5C])p.[moe](A)[sp].[moe](G)}$$$$ (last 3' nucleoside missing) | 2
